SMILES strings stand for the structures. Where a name gives a salt, the structure may show the parent alone.

One test deals with T1, hNav1.7 (Homo sapiens (Human), UniProt Q15858). The test is described as follows: Tritiated compound binding to membranes from cells expressing hNav1.7 and the β1 subunit (Nav1.7 LBA EVO). The following applies: competitive binding vs [3H]compound, membranes with hNav1.7 and β1 subunit. The protocol:
Example 64a. Tritiated Compound Binding to Membranes Isolated from Cells that Heterologously Express hNav1.7 and the β1 Subunit
Preparation of membranes containing recombinantly expressed sodium channels: Frozen recombinant cell pellets are thawed on ice and diluted to 4 times the cell pellet weight with ice cold 50 mM Tris HCl, pH 7.4 buffer. The cell suspensions are homogenized on ice using a motorized glass dounce homogeniser. Homogenates are further diluted 8.4 times with ice cold 50 mM Tris HCl, pH 7.4 buffer and then centrifuged at 200×g at 4° C. for 15 minutes. The supernatants are collected and centrifuged at 10000×g at 4° C. for 50 min. The pellets are then re-suspended in 100 mM NaCl, 20 mM Tris HCl, pH 7.4 buffer containing 1% v/v protease inhibitors (Calbiochem) and re-homogenized on ice. The homogenized membranes are then processed through a syringe equipped with a 26 gauge needle. Protein concentrations arer determined by Bradford Assay and the membranes are stored at −80° C.
Radioligand Binding Studies: Saturation experiments. A competitive NaV1.7 inhibitor having a methyl group is tritiated. Three tritiums are incorporated in place of methyl hydrogens to generate [^3H]compound. Binding of this radioligand is performed in 5 mL borosilicate glass test tubes at room temperature. Binding is initiated by adding membranes to increasing concentrations of [^3H]compound in 100 mM NaCl, 20 mM Tris HCl, pH 7.4 buffer containing 0.01% w/v bovine serum albumin (BSA) for 18 h. Non-specific binding is determined in the presence of 1 μM unlabeled compound. After 18 h, the reactants are filtered through GF/C glass fiber filters presoaked in 0.5% w/v polyethylene imine. Filters are washed with 15 mL ice cold 100 mM NaCl, 20 mM Tris HCl, pH7.4 buffer containing 0.25% BSA to separate bound from free ligand. [^3H]compound bound to filters is quantified by liquid scintillation counting.
Competitive binding experiments: Binding reactions are performed in 96-well polypropylene plates at room temperature for 18 h. In 360 μL, membranes are incubated with 100 pM [^3H]compound and increasing concentrations of Test Compound. Non-specific binding is defined in the presence of 1 μM unlabeled compound. Reactions are transferred and filtered through 96-well glass fiber/C filter plates presoaked with 0.5% polyethylene imine. The filtered reactions are washed 5 times with 200 μL ice cold buffer containing 0.25% BSA. Bound radioactivity is determined by liquid scintillation counting.
Data Analysis: For saturation experiments, non-specific binding is subtracted from total binding to provide specific binding and these values are recalculated in terms of pmol ligand bound per mg protein. Saturation curves are constructed and dissociation constants are calculated using the single site ligand binding model: Beq=(Bmax*X)/(X+Kd), where Beq is the amount of ligand bound at equilibrium, Bmax is the maximum receptor density, Kd is the dissociation constant for the ligand, and X is the free ligand concentration. For competition studies percent inhibition is determined and IC50 values are calculated using a 4 parameter logistic model (% inhibition=(A+((B−A)/(1+((x/C)^D)))) using XLfit, where A and B are the maximal and minimum inhibition respectively, C is the IC50 concentration and D is the (Hill) slope.
Example 64b. Tritiated Compound Binding to Membranes Isolated from Cells that Heterologous Express hNav1.7 and the β1 Subunit
Preparation of membranes containing recombinantly expressed sodium channels: Following the procedure described in 31a, and making modifications as required to: centrifuge supernatants at 100000×g instead of 10000×g; re-suspend pellets in a buffer containing 0.01% BSA in addition to 100 mM NaCl, 20 mM Tris HCl, pH 7.4 buffer, and 1% v/v […]; and storing membranes at −80° C. in single use aliquots instead of pooled. […]
Target sequence in this assay (Q15858 whole entry, looked up): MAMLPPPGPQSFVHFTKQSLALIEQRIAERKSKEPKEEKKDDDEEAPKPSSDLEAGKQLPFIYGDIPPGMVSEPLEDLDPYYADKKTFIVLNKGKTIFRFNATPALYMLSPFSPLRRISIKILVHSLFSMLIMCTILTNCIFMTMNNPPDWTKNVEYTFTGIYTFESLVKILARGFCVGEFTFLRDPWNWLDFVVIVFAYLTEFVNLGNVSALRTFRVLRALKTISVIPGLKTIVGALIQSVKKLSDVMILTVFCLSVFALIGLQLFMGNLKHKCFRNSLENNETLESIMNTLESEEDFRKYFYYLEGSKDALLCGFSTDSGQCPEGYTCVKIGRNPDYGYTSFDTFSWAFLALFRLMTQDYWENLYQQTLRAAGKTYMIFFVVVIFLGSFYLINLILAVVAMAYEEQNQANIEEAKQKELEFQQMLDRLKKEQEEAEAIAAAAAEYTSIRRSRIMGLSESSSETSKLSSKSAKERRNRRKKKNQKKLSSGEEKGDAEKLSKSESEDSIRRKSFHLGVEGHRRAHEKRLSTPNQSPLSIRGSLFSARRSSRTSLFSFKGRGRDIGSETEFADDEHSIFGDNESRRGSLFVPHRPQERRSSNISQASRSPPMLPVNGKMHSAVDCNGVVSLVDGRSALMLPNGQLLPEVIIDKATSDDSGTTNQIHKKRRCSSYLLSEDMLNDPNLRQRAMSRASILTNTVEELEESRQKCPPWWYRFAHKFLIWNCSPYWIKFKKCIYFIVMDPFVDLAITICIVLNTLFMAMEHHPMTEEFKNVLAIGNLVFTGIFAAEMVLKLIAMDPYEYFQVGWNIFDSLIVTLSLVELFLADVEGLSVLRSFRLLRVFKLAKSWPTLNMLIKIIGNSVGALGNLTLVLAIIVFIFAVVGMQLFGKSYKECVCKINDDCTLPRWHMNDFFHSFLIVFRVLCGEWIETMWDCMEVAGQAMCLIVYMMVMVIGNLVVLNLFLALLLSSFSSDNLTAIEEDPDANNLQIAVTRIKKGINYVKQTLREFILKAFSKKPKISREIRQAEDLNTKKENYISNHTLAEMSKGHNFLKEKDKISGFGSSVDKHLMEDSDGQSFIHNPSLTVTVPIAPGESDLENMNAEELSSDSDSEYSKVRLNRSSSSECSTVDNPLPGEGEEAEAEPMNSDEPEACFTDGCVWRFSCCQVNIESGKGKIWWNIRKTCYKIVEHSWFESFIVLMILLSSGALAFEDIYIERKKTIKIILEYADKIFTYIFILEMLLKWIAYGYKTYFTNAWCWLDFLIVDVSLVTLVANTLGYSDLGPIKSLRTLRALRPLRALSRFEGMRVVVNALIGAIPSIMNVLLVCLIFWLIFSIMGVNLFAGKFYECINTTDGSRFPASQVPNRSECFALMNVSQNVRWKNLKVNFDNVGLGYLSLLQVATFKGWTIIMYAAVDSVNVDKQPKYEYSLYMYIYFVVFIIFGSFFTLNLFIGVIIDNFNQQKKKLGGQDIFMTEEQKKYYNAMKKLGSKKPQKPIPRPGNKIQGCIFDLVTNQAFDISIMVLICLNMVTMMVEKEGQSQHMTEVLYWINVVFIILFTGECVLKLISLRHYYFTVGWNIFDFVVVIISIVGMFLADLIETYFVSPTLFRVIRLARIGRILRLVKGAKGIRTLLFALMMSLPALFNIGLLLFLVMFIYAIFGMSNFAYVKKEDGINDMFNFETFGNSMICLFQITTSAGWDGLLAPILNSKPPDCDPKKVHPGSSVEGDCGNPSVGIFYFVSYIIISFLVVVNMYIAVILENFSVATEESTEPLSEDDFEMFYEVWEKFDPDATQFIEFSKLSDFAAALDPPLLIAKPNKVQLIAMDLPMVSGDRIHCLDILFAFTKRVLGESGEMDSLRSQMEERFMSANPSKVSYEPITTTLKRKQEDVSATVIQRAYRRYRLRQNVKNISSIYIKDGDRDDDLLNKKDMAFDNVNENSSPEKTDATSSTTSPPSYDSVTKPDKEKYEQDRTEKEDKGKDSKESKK
Target sequence in this assay (Q07699 whole entry partner, looked up): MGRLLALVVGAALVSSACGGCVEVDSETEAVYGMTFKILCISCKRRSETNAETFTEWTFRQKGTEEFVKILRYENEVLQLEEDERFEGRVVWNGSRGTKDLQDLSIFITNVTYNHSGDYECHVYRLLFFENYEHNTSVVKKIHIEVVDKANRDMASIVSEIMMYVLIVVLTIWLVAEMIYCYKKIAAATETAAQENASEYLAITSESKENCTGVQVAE
`CN(C)[C@H]1C[C@@H](c2cccc(OC(F)(F)F)c2)CC[C@@H]1Nc1ccc(S(=O)(=O)Nc2ccncn2)cn1` [Example 8, 6-(((1S,2S,4S)-2-(dimethylamino)-4-(3-(trifluoromethoxy)phenyl)cyclohexyl)amino)-N-(pyrimidin-4-yl)pyridine-3-sulfonamide formate]: the IC50 – broadly, the concentration needed to halve the response being measured – amounted to 7.12 nM.

In the case of `Cc1nc(O[C@H]2CC[C@H](c3cc(Cl)cc(Cl)c3)C[C@@H]2N(C)C)ccc1S(=O)(=O)Nc1ccncn1` [Example 50, 6-(((1S,2S,4S)-4-(3,5-dichlorophenyl)-2-(dimethylamino)cyclohexyl)oxy)-2-methyl-N-(pyrimidin-4-yl)pyridine-3-sulfonamide], the 50% inhibitory concentration (IC50) was found to be 1.12 nM.

`CN(C)[C@H]1C[C@@H](c2cccc(C(F)(F)F)c2)CC[C@@H]1Nc1ncc(S(=O)(=O)Nc2ccncn2)cc1Cl` [Example 4, 5-Chloro-6-(((1S,2S,4S)-2-(dimethylamino)-4-(3-(trifluoromethyl)phenyl)cyclohexyl)amino)-N-(pyrimidin-4-yl)pyridine-3-sulfonamide] had a half-inhibitory concentration (IC50) of 8.3 nM.

Regarding `Cc1nc(O[C@H]2CC[C@H](c3ccc(Cl)c(C(F)(F)F)n3)C[C@@H]2N(C)C)ccc1S(=O)(=O)Nc1ccncn1` [Example 62, 6-(((1S,2S,4S)-4-(5-chloro-6-(trifluoromethyl)pyridin-2-yl)-2-(dimethylamino)-cyclohexyl)oxy)-2-methyl-N-(pyrimidin-4-yl)pyridine-3-sulfonamide], the IC50 is 1.89 nM.

Molecule `Cc1ccc([C@H]2CC[C@H](Oc3ccc(S(=O)(=O)Nc4ccncn4)c(C)n3)[C@@H](N(C)C)C2)cc1C(F)(F)F` [Example 56, 6-(((1S,2S,4S)-2-(dimethylamino)-4-(4-methyl-3-(trifluoromethyl)phenyl)cyclohexyl)oxy)-2-methyl-N-(pyrimidin-4-yl)pyridine-3-sulfonamide formate] yielded a concentration for half-maximal inhibition (IC50) of 1.32 nM.

On to `Cc1nc(O[C@H]2CC[C@H](c3cccc(C(F)(F)F)c3)C[C@@H]2N(C)C2CCC2)ccc1S(=O)(=O)Nc1ccncn1` [Example 35, 6-(((1S,2S,4S)-2-(Cyclobutyl(methyl)amino)-4-(3-(trifluoromethyl)phenyl)cyclohexyl)oxy)-2-methyl-N-(pyrimidin-4-yl)pyridine-3-sulfonamide], for which the half-inhibitory concentration (IC50) was found to be 1.12 nM.

Molecule `O=S(=O)(Nc1ccncn1)c1ccc(O[C@H]2CC[C@H](c3cccc(OC(F)(F)F)c3)C[C@@H]2N2CCCC2)nc1` [Example 10, N-(pyrimidin-4-yl)-6-(((1S,2S,4S)-2-(pyrrolidin-1-yl)-4-(3-(trifluoromethoxy)phenyl)cyclohexyl)oxy)-pyridine-3-sulfonamide] had an IC50 of 67.4 nM.

As for `Cc1ccc(C(F)(F)F)cc1[C@H]1CC[C@H](Oc2ccc(S(=O)(=O)Nc3ccncn3)c(C)n2)[C@@H](N(C)C)C1` [Example 54, 6-(((1S,2S,4S)-2-(dimethylamino)-4-(2-methyl-5-(trifluoromethyl)phenyl)cyclohexyl)oxy)-2-methyl-N-(pyrimidin-4-yl)pyridine-3-sulfonamide], the IC50 is 0.695 nM.

In turn, `Cc1nc(O[C@H]2CC[C@H](c3cccc(OC(F)(F)F)c3)C[C@@H]2N2CCCC2)ccc1S(=O)(=O)Nc1ccncn1` [Example 30, 2-Methyl-N-(pyrimidin-4-yl)-6-(((1S,2S,4S)-2-(pyrrolidin-1-yl)-4-(3-(trifluoromethoxy)phenyl)-cyclohexyl)oxy)pyridine-3-sulfonamide] had a concentration for half-maximal inhibition (IC50) of 16.6 nM.

In turn, `O=S(=O)(Nc1ccncn1)c1cnc(O[C@H]2CC[C@H](c3cccc(C(F)(F)F)c3)C[C@@H]2N2CCCC2)c(Cl)c1` [Example 18, 5-chloro-N-(pyrimidin-4-yl)-6-(((1S,2S,4S)-2-(pyrrolidin-1-yl)-4-(3-(trifluoromethyl)phenyl)-cyclohexyl)oxy)pyridine-3-sulfonamide] showed a half-inhibitory concentration (IC50) of 0.95 nM.

Consider `CN(C)[C@H]1C[C@@H](c2cccc(C(F)(F)F)c2)CC[C@@H]1Oc1ncc(S(=O)(=O)Nc2ccncn2)cc1C1CC1` [Example 7, 5-Cyclopropyl-6-(((1S,2S,4S)-2-(dimethylamino)-4-(3-(trifluoromethyl)phenyl)cyclohexyl)oxy)-N-(pyrimidin-4-yl)pyridine-3-sulfonamide formate], for which the concentration for half-maximal inhibition (IC50) turned out to be 4.88 nM.

`O=S(=O)(Nc1ccncn1)c1ccc(O[C@H]2CC[C@H](c3cccc(C(F)(F)F)c3)C[C@@H]2N2CCCC2)nc1` [Example 17, N-(pyrimidin-4-yl)-6-(((1S,2S,4S)-2-(pyrrolidin-1-yl)-4-(3-(trifluoromethyl)phenyl)cyclohexyl)oxy)-pyridine-3-sulfonamide formate] displayed a concentration for half-maximal inhibition (IC50) of 1.18 nM.

`Cc1nc(O[C@H]2CC[C@H](c3cc(F)cc(C(F)(F)F)c3)C[C@@H]2N(C)C)ccc1S(=O)(=O)Nc1ccncn1` [Example 42, 6-(((1S,2S,4S)-2-(Dimethylamino)-4-(3-fluoro-5-(trifluoromethyl)phenyl)cyclohexyl)oxy)-2-methyl-N-(pyrimidin-4-yl)pyridine-3-sulfonamide] had a half-maximal inhibitory concentration (IC50) of 0.72 nM.

In turn, `Cc1nc(O[C@H]2CC[C@H](c3ccc(F)c(C(F)(F)F)c3)C[C@@H]2N(C)C)ccc1S(=O)(=O)Nc1ccncn1` [Example 45, 6-(((1S,2S,4S)-2-(Dimethylamino)-4-(4-fluoro-3-(trifluoromethyl)phenyl)cyclohexyl)oxy)-2-methyl-N-(pyrimidin-4-yl)pyridine-3-sulfonamide formate] yielded a half-maximal inhibitory concentration (IC50) of 0.913 nM.

Take `CN(C)[C@H]1C[C@@H](c2cccc(C(F)(F)F)c2)CC[C@@H]1Oc1ncc(S(=O)(=O)Nc2ccncn2)cc1Cl` [Example 3, 5-Chloro-6-(((1S,2S,4S)-2-(dimethylamino)-4-(3-(trifluoromethyl)phenyl)cyclohexyl)oxy)-N-(pyrimidin-4-yl)pyridine-3-sulfonamide]: the IC50 worked out at 40 nM.

In a further test the target is T1, hNav1.7. The test is described as follows: Patch voltage clamp electrophysiology assay (EP), Syncropatch 384PE, CHO cells expressing Nav1.7. To be noted: holding potential −50 mV, 7.5 min compound incubation; read-out: EP_SP hNav1.7 EVO IC50. The format is cell-based. An excerpt:
Example 64c. Electrophysiological Assay (EP) (In Vitro Assay)
Patch voltage clamp electrophysiology allows for the direct measurement and quantification of block of voltage-gated sodium channels (NaV's), and allows the determination of the time- and voltage-dependence of block which has been interpreted as differential binding to the resting, open, and inactivated states of the sodium channel (Hille, B., Journal of General Physiology (1977), 69: 497-515).
The following voltage clamp electrophysiology studies are performed on representative compounds using cells heterologously expressing Nav1.7 or Nav1.5 channels. cDNAs for Nav1.7 (NM 002977) and Nav1.5 (AC137587) are stably expressed in Chinese Hamstr Ovary (CHO) cells and CHL (Chinese Hamster Lung) cells respectively. Sodium currents are measured in the whole-cell configuration using Syncropatch 384PE ([…], Germany). 1NPC®-384 chips with custom medium resistance and single hole mode are used. Internal solution consists of (in mM): […], 10CsCl, 20EGTA, and 10Hepes (pH adjusted to 7.2); and external solution contains (in mM): 60NMDG, 80NaCl, 4 KCl, 1MgCl2, 2CaCl2, 2D-Glucose monohydrate, 10Hepes (pH adjusted to 7.4 with NaOH).
After system flushing, testing compounds are dissolved in external solution containing 0.1% Pluronic F-127. The chip is moved into the measuring head and the instrument primes the chip with external and internal solutions. 10 μl cells are added to the chip from a cell hotel, and a negative pressure of −50 mBar is applied to form a seal. Following treatment with seal enhancer solution and wash-off with external solution, negative pressure of −250 mbar is applied for 1 second to achieve the whole-cell configuration, followed by three washing steps in external solution. 20 μl of compounds is added to 40 μl in each well (1:3 dilution of compounds), and after mixing, 20 μl is removed so the volume is retained at 40 ul. After approximately 13 minutes recordings, 20 μl/well of 2 uM TTX, or 333 uM Tetracaine (for Nav1.5) is added to achieve full block.
For voltage protocol, an holding potential of −50 mV is applied during the whole experiment. A depolarizing step is applied to −10 mV for 10 ms, followed by a hyperpolarization step to −150 mV for 20 ms to allow channel recovery from inactivation. A second depolarizing step is applied from −150 mV to −10 mV for 10 ms, where currents are measured to derive blocking effects of compounds. Inhibition is determined based on 7.5 min of compound incubation.
Background: Patch clamp records ionic current or voltage across a cell membrane.
Target sequence in this assay (Q15858 other isoform, or with tags, fused parts or gaps): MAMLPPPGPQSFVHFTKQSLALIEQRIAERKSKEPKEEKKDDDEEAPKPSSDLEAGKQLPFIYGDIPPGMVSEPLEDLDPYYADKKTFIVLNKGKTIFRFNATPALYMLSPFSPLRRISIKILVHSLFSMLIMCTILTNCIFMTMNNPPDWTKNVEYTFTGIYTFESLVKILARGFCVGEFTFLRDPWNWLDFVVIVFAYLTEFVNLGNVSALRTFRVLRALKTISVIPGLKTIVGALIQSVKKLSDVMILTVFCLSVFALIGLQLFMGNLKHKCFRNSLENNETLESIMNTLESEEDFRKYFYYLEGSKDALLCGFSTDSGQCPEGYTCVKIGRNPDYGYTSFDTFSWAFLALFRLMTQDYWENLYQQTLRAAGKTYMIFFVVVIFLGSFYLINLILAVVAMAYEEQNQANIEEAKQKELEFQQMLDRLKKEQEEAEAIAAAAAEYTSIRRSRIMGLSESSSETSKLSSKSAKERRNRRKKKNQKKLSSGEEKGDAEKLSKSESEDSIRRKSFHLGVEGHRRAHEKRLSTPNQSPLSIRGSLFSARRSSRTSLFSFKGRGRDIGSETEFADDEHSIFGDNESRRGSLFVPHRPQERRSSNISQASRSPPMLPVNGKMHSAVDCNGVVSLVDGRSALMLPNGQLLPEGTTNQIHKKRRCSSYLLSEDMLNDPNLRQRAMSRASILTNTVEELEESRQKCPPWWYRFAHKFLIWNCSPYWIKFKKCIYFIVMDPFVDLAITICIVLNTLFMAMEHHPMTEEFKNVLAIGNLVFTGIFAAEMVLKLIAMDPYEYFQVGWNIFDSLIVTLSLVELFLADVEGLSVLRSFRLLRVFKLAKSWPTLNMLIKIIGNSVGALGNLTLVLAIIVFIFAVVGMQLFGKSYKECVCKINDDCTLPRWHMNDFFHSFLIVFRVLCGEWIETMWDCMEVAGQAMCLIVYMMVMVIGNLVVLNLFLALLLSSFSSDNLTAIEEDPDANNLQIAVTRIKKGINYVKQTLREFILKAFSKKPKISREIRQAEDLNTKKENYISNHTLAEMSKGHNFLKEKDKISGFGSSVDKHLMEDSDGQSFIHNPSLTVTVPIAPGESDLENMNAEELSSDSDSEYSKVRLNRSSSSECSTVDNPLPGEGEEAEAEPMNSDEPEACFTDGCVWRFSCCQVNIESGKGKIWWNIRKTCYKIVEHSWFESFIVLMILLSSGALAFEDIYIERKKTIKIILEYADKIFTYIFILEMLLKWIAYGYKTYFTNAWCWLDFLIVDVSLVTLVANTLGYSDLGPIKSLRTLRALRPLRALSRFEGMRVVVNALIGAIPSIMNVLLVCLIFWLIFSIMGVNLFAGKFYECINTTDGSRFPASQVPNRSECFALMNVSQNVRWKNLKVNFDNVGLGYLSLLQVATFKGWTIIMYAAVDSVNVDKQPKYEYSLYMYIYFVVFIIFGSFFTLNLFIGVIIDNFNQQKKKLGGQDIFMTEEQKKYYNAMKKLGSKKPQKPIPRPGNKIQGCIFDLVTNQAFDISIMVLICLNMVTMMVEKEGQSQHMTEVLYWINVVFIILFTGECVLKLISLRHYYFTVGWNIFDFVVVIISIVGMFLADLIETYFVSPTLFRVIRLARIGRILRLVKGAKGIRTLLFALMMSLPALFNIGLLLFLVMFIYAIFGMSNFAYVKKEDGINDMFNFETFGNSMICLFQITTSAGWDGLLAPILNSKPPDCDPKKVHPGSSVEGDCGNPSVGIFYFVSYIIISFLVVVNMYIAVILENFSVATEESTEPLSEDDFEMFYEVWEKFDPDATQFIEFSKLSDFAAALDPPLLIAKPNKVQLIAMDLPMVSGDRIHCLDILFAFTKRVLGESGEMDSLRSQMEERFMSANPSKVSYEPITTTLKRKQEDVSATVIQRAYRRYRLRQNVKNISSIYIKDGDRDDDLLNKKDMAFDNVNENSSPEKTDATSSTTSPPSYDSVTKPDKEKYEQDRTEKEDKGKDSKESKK
Take `CN(C)[C@H]1C[C@@H](c2cccc(OC(F)(F)F)c2)CC[C@@H]1Nc1ccc(S(=O)(=O)Nc2ccncn2)cn1` [Example 8, 6-(((1S,2S,4S)-2-(dimethylamino)-4-(3-(trifluoromethoxy)phenyl)cyclohexyl)amino)-N-(pyrimidin-4-yl)pyridine-3-sulfonamide formate]: the IC50 is 0.574 nM.

With `Cc1nc(O[C@H]2CC[C@H](c3cc(Cl)cc(Cl)c3)C[C@@H]2N(C)C)ccc1S(=O)(=O)Nc1ccncn1` [Example 50, 6-(((1S,2S,4S)-4-(3,5-dichlorophenyl)-2-(dimethylamino)cyclohexyl)oxy)-2-methyl-N-(pyrimidin-4-yl)pyridine-3-sulfonamide], the IC50 worked out at 0.222 nM.
